Source: patent US11357779B2 (G1 Therapeutics, Inc., priority 2018, dated 2022)
Read-outs that look alike come from different tables or passages of the source.

Test: Plasma concentration versus time of Compound I and metabolite Compound III in patients dosed QD or BID with Form B of Compound II plus fulvestrant
Type: in vivo, human
Conditions: human, plasma, oral; for concentration at 8 day / concentration at 15 day: Cohort 7, 150 mg BID of Form B; for concentration at 8 day: Day 8; for concentration at 15 day: Day 15
Excerpt: Patients were enrolled into 1 of 2 parallel, independently operating, dose-escalation dosing cohorts with Form B of Compound II administered continuously either once daily (QD) or twice daily (BID) with food with fixed-dose fulvestrant (intramuscularly every 14 days for the first three injections and then every 28 days). Pre- or perimenopausal patients also received goserelin for the duration of study treatment. A […] agonist was started at least 28 days before the first dose of Form B, and those patients who were taking another LHRH agonist were switched to goserelin on Day 1. Patients were split into […] cohorts providing once a day (QD) dosing of 200 mg, 300 mg, 400 mg, 500 mg, or 650 mg of Form B, or twice a day (BID) dosing of 100 mg, 150 mg, or 200 mg of Form B. The second dose in BID cohorts was not administered in the evening until at least 12 hours after the initial morning dose of Form B. The dosing cohorts for Form B of Compound II are provided in Table 1.
Blood samples were collected at the following time points relative to the morning dose of Form B at Day 1 and at Day 29: pre-dose (0 hour) and 1, 2, 3, 4, 6, 8, 10, 12 (prior to the evening dose in the BID cohorts), and 24 (prior to the next day's morning dose) hours after dosing. A 5-minute time window was allowed for samples collected between the predose and 3 hours after Form B dosing. A 15-minute window was allowed for samples collected between 4 to 12 hours after Form B dosing. A 1-hour window was allowed for the sample collected 24 hours after Form B dosing. Blood samples for Compound I PK trough levels were collected pre-dose at Day 8, Day 15, and Day 22 prior to the morning administration of Compound I. Plasma concentrations of Compound I and its metabolite, Compound III, were measured using validated methods.
Analysis of plasma concentration versus time data for calculation of standard pharmacokinetic (PK) parameters following oral administration was conducted using Phoenix WinNonlin version 6.3 using actual blood sampling times.

[1] = 150 mg, read-out: Trough Compound I Concentration, Max
[2] = 150 mg, read-out: Trough Compound I Concentration, Median

CC(C)N1CCN(c2ccc(Nc3ncc4cc5n(c4n3)C3(CCCCC3)CNC5=O)nc2)CC1 [Compound I, 2′-((5-(4-isopropylpiperazin-1-yl)pyridin-2-yl)amino)-7′,8′-dihydro-6′H-spiro[cyclohexane-1,9′-pyrazino[1′,2′:1,5]pyrrolo[2,3-d]pyrimidin]-6′-one] showed a concentration at 0 h (100 mg, Cohort 6, 100 mg BID of Form B, Day 29, 0.0 h, read-out: Compound I Concentration, Median) of 4.13 ng/mL, a concentration at 0 h (100 mg, Cohort 6, 100 mg BID of Form B, Day 29, 0.0 h, read-out: Compound I Concentration, Min) of 1.54 ng/mL and a concentration at 1 h (100 mg, Cohort 6, 100 mg BID of Form B, Day 29, 1.0 h, read-out: Compound I Concentration, Max) of 15.7 ng/mL. For the same compound, the concentration at 1 h (100 mg, Cohort 6, 100 mg BID of Form B, Day 29, 1.0 h, read-out: Compound I Concentration, Mean) was 9.25 ng/mL, the concentration at 1 h (100 mg, Cohort 6, 100 mg BID of Form B, Day 29, 1.0 h, read-out: Compound I Concentration, Median) was 9.34 ng/mL and the concentration at 1 h (100 mg, Cohort 6, 100 mg BID of Form B, Day 29, 1.0 h, read-out: Compound I Concentration, Min) was 1.79 ng/mL. For the same compound, the concentration at 2 h (100 mg, Cohort 6, 100 mg BID of Form B, Day 29, 2.0 h, read-out: Compound I Concentration, Max) was 19.6 ng/mL, the concentration at 2 h (100 mg, Cohort 6, 100 mg BID of Form B, Day 29, 2.0 h, read-out: Compound I Concentration, Mean) was 11 ng/mL and the concentration at 2 h (100 mg, Cohort 6, 100 mg BID of Form B, Day 29, 2.0 h, read-out: Compound I Concentration, Median) was 11.8 ng/mL. The concentration at 2 h (100 mg, Cohort 6, 100 mg BID of Form B, Day 29, 2.0 h, read-out: Compound I Concentration, Min) was 2.94 ng/mL, the concentration at 3 h (100 mg, Cohort 6, 100 mg BID of Form B, Day 29, 3.0 h, read-out: Compound I Concentration, Max) was 20.5 ng/mL and the concentration at 3 h (100 mg, Cohort 6, 100 mg BID of Form B, Day 29, 3.0 h, read-out: Compound I Concentration, Mean) was 10.5 ng/mL. The concentration at 3 h (100 mg, Cohort 6, 100 mg BID of Form B, Day 29, 3.0 h, read-out: Compound I Concentration, Median) was 8.31 ng/mL, the concentration at 3 h (100 mg, Cohort 6, 100 mg BID of Form B, Day 29, 3.0 h, read-out: Compound I Concentration, Min) was 4.4 ng/mL and the concentration at 4 h (100 mg, Cohort 6, 100 mg BID of Form B, Day 29, 4.0 h, read-out: Compound I Concentration, Max) was 19.8 ng/mL. It also gave a concentration at 4 h (100 mg, Cohort 6, 100 mg BID of Form B, Day 29, 4.0 h, read-out: Compound I Concentration, Mean) of 10.5 ng/mL, a concentration at 4 h (100 mg, Cohort 6, 100 mg BID of Form B, Day 29, 4.0 h, read-out: Compound I Concentration, Median) of 9.26 ng/mL and a concentration at 4 h (100 mg, Cohort 6, 100 mg BID of Form B, Day 29, 4.0 h, read-out: Compound I Concentration, Min) of 5.14 ng/mL. It also gave a concentration at 6 h (100 mg, Cohort 6, 100 mg BID of Form B, Day 29, 6.0 h, read-out: Compound I Concentration, Max) of 16.2 ng/mL, a concentration at 6 h (100 mg, Cohort 6, 100 mg BID of Form B, Day 29, 6.0 h, read-out: Compound I Concentration, Mean) of 8.82 ng/mL and a concentration at 6 h (100 mg, Cohort 6, 100 mg BID of Form B, Day 29, 6.0 h, read-out: Compound I Concentration, Median) of 8.11 ng/mL. The concentration at 6 h (100 mg, Cohort 6, 100 mg BID of Form B, Day 29, 6.0 h, read-out: Compound I Concentration, Min) was 4.1 ng/mL, the concentration at 8 h (100 mg, Cohort 6, 100 mg BID of Form B, Day 29, 8.0 h, read-out: Compound I Concentration, Max) was 13.8 ng/mL and the concentration at 8 h (100 mg, Cohort 6, 100 mg BID of Form B, Day 29, 8.0 h, read-out: Compound I Concentration, Mean) was 7.45 ng/mL. The concentration at 8 h (100 mg, Cohort 6, 100 mg BID of Form B, Day 29, 8.0 h, read-out: Compound I Concentration, Median) was 6.57 ng/mL, the concentration at 8 h (100 mg, Cohort 6, 100 mg BID of Form B, Day 29, 8.0 h, read-out: Compound I Concentration, Min) was 3.61 ng/mL and the concentration at 10 h (100 mg, Cohort 6, 100 mg BID of Form B, Day 29, 10.0 h, read-out: Compound I Concentration, Max) was 11.4 ng/mL. The concentration at 10 h (100 mg, Cohort 6, 100 mg BID of Form B, Day 29, 10.0 h, read-out: Compound I Concentration, Mean) was 6.23 ng/mL, the concentration at 10 h (100 mg, Cohort 6, 100 mg BID of Form B, Day 29, 10.0 h, read-out: Compound I Concentration, Median) was 5.44 ng/mL and the concentration at 10 h (100 mg, Cohort 6, 100 mg BID of Form B, Day 29, 10.0 h, read-out: Compound I Concentration, Min) was 2.88 ng/mL. It also gave a concentration at 12 h (100 mg, Cohort 6, 100 mg BID of Form B, Day 29, 12.0 h, read-out: Compound I Concentration, Max) of 10.1 ng/mL, a concentration at 12 h (100 mg, Cohort 6, 100 mg BID of Form B, Day 29, 12.0 h, read-out: Compound I Concentration, Mean) of 7.16 ng/mL and a concentration at 12 h (100 mg, Cohort 6, 100 mg BID of Form B, Day 29, 12.0 h, read-out: Compound I Concentration, Median) of 8.36 ng/mL. For the same compound, the concentration at 12 h (100 mg, Cohort 6, 100 mg BID of Form B, Day 29, 12.0 h, read-out: Compound I Concentration, Min) was 2.37 ng/mL, the concentration at 0 h (150 mg, 150 mg BID of Form B, Day 1, 0.0 h, Mean, read-out: Compound I Concentration) was 0 ng/mL and the concentration at 0 h (150 mg, 150 mg BID of Form B, Day 1, 0.0 h, Median, read-out: Compound I Concentration) was 0 ng/mL. For the same compound, the concentration at 1 h (150 mg, 150 mg BID of Form B, Day 1, 1.0 h, Mean, read-out: Compound I Concentration) was 4.63 ng/mL, the concentration at 1 h (150 mg, 150 mg BID of Form B, Day 1, 1.0 h, Median, read-out: Compound I Concentration) was 5.06 ng/mL and the concentration at 2 h (150 mg, 150 mg BID of Form B, Day 1, 2.0 h, Mean, read-out: Compound I Concentration) was 11 ng/mL. The concentration at 2 h (150 mg, 150 mg BID of Form B, Day 1, 2.0 h, Median, read-out: Compound I Concentration) was 11.6 ng/mL, the concentration at 3 h (150 mg, 150 mg BID of Form B, Day 1, 3.0 h, Mean, read-out: Compound I Concentration) was 14.4 ng/mL and the concentration at 3 h (150 mg, 150 mg BID of Form B, Day 1, 3.0 h, Median, read-out: Compound I Concentration) was 10.2 ng/mL. For the same compound, the concentration at 4 h (150 mg, 150 mg BID of Form B, Day 1, 4.0 h, Mean, read-out: Compound I Concentration) was 20.7 ng/mL, the concentration at 4 h (150 mg, 150 mg BID of Form B, Day 1, 4.0 h, Median, read-out: Compound I Concentration) was 21.5 ng/mL and the concentration at 6 h (150 mg, 150 mg BID of Form B, Day 1, 6.0 h, Mean, read-out: Compound I Concentration) was 12.2 ng/mL. It also gave a concentration at 6 h (150 mg, 150 mg BID of Form B, Day 1, 6.0 h, Median, read-out: Compound I Concentration) of 10.4 ng/mL, a concentration at 8 h (150 mg, 150 mg BID of Form B, Day 1, 8.0 h, Mean, read-out: Compound I Concentration) of 10.1 ng/mL and a concentration at 8 h (150 mg, 150 mg BID of Form B, Day 1, 8.0 h, Median, read-out: Compound I Concentration) of 9.95 ng/mL. The concentration at 10 h (150 mg, 150 mg BID of Form B, Day 1, 10.0 h, Mean, read-out: Compound I Concentration) was 8.98 ng/mL, the concentration at 10 h (150 mg, 150 mg BID of Form B, Day 1, 10.0 h, Median, read-out: Compound I Concentration) was 8.98 ng/mL and the concentration at 12 h (150 mg, 150 mg BID of Form B, Day 1, 12.0 h, Mean, read-out: Compound I Concentration) was 7.73 ng/mL. The concentration at 12 h (150 mg, 150 mg BID of Form B, Day 1, 12.0 h, Median, read-out: Compound I Concentration) was 7.38 ng/mL, the concentration at 8 day [1] was 42.3 ng/mL and the concentration at 8 day (150 mg, read-out: Trough Compound I Concentration, Mean) was 26.8 ng/mL. For the same compound, the concentration at 8 day [2] was 20.6 ng/mL, the concentration at 8 day (150 mg, read-out: Trough Compound I Concentration, Min) was 17.4 ng/mL and the concentration at 15 day [1] was 35.7 ng/mL. It also gave a concentration at 15 day [2] of 23.3 ng/mL.
